According to article PMC6972920, “Structure-based development of caged dopamine D2/D3 receptor antagonists” (Scientific Reports, 2020):
Entries after “also recorded” stand apart in the source; their conditions may differ. Like-named read-outs stand apart in the source and are kept apart here.

Experiments:
[1] = biological target: T1, human adrenergic α2A receptor (Homo sapiens, UniProt P08913); assay: Competition binding, [3H]RX821002, HEK293T membranes
T1 construct: expressed in transfected cells; host or cells: HEK293T cells, transient transfection
T1 sequence (P08913 1-465): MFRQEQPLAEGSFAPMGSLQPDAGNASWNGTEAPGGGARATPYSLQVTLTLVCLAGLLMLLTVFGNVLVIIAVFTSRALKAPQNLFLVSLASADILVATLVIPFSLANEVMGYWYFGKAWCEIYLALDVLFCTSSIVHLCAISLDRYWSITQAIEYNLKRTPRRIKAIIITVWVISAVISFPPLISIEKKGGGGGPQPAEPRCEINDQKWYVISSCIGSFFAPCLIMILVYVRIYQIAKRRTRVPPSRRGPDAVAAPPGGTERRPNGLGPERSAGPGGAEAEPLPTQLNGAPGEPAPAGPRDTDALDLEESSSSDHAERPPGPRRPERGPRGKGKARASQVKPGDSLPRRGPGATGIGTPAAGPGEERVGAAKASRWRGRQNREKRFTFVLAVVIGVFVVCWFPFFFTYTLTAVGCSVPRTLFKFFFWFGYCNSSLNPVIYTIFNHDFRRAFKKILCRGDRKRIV

[2] = biological target: human dopamine receptor subtype D2S (Homo sapiens, UniProt P14416); assay: Radioligand displacement, [3H]spiperone, CHO cell membranes; type: binding
[3] = biological target: human dopamine receptor subtype D2L (Homo sapiens, UniProt P14416); assay: as above; type: binding
[4] = biological target: all dopamine receptor subtypes; assay: Radioligand binding, text summary over all dopamine receptor subtypes tested; set-up: species or system human; conditions: range over D2L, D2S, D3, D4.4, stated in text; read-out: Ki values towards all dopamine receptor subtypes (range)
[5] = biological target: human dopamine receptor subtype D3 (Homo sapiens, UniProt P35462); assay: Radioligand displacement, [3H]spiperone, CHO cell membranes; type: binding; conditions: mean ± SEM of 4-9 experiments, compounds 1, 2, 3: ± SD of two experiments
[6] = Compound stability and photolysis in aqueous buffer monitored by HPLC; type: physicochemical; conditions: for behaviour upon illumination with λp = 365 nm (in words): aqueous buffer, LED 365 nm, HPLC; for stability in the absence of light (in words): dark, storage and solution, HPLC/LCMS
Procedure: All measurements were performed in aqueous buffer solution. Compound stability and photolysis was monitored by HPLC. […] Excitation of NB- and DMNB-type cages to trigger photolysis is usually performed with light of 300–400 nm. This absorption profile may limit the wavelength range for cage photolysis, as simultaneous excitation of the core pharmacophore may trigger photolytic degradation of the desired product. We performed photolysis experiments using a near UV light-emitting diode (LED) light source with a peak wavelength of λp = 365 nm and a spectrum half width of Δλ = 9 nm.
No unspecific degradation of the pharmacophore was observed, resulting in constant concentration of the desired product. […] The exposure to ambient light for longer time led to partial photolytic degradation. After incubation in aqueous buffer at ambient light for 1 h, we detected remaining 51% and 62% of the initial concentrations of 4 (MG307) and 5, respectively.
For compound characterization, UV/Vis absorption spectra of samples with c = 0.1 mM in methanol were measured on an Analytik Jena Specord 200 Plus spectrometer (λ = 210–400 nm). Irradiation experiments to trigger photolysis were performed in open HPLC glass vials using a LED (λ = 365 nm, 4.5 V, 0.7 A) to irradiate the samples from top. An aqueous buffer solution served as solvent (50 mM Tris, 1 mM EDTA, 50 mM MgCl2, 100 µg/ml bacitracin, 5 µg/ml soybean trypsin inhibitor), with initial sample concentrations of […] and sample volumes of 100 µl. Photolysis was monitored by HPLC as specified before (eluent system 1). […] Unless specified differently, all experiments were performed in triplicate.

[7] = biological target: T2, human dopamine receptor subtype D4.4 (Homo sapiens, UniProt P21917); assay: Radioligand displacement, [3H]spiperone, CHO cell membranes; type: binding
T2 sequence (P21917 1-419): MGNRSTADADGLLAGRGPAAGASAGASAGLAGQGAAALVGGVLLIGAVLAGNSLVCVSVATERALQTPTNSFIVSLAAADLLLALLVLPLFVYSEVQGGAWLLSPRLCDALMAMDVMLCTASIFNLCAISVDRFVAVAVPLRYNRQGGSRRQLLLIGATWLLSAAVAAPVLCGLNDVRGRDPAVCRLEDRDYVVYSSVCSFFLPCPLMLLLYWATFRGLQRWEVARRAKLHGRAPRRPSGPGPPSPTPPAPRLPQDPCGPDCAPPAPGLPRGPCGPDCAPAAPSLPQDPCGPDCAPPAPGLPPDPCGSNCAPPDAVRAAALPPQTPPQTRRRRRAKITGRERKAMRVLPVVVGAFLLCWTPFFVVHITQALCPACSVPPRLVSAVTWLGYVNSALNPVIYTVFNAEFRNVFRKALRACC

D2 and D3 receptors = assay: Radioligand binding, summary over D2 and D3 subtypes; set-up: species or system human; conditions: range over D2L, D2S, D3, stated in text
[8] = biological target: T3, human dopamine D5 receptor (Homo sapiens, UniProt P21918); assay: Competition binding, [3H]SCH23390, HEK293T membranes
T3 construct: expressed in transfected cells; host or cells: HEK293T cells, transient transfection

[9] = biological target: T4, human dopamine D1 receptor (Homo sapiens, UniProt P21728); assay: as above
T4 construct: expressed in transfected cells; host or cells: HEK293T cells, transient transfection

[10] = biological target: T5, human adrenergic α1A receptor (Homo sapiens, UniProt P35348); assay: Competition binding, [3H]prazosin, HEK293T membranes; conditions: ± SD of two experiments
T5 construct: expressed in transfected cells; host or cells: HEK293T cells, transient transfection
T5 sequence (P35348 1-466): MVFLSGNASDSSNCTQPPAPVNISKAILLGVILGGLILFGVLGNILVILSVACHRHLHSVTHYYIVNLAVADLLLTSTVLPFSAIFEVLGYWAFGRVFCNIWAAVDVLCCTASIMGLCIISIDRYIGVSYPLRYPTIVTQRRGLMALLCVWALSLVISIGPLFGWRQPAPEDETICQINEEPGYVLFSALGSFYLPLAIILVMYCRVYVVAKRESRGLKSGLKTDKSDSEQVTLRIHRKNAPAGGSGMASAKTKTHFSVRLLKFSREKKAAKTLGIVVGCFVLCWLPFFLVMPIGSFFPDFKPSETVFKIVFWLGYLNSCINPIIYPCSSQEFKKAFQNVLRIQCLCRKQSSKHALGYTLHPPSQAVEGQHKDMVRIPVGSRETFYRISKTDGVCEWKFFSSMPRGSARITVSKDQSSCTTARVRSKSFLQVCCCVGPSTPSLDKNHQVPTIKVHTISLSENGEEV

[11] = biological target: T6, human adrenergic β2 receptor (Homo sapiens, UniProt P07550); assay: Competition binding, [3H]CGP12177, HEK293T membranes; conditions: ± SD of two experiments
T6 construct: expressed in transfected cells; host or cells: HEK293T cells, transient transfection

[12] = biological target: T7, human serotonin 5-HT2A receptor (Homo sapiens, UniProt P28223); assay: Competition binding, [3H]ketanserin, HEK293T membranes; conditions: ± SD of two experiments
T7 construct: expressed in transfected cells; host or cells: HEK293T cells, transient transfection

[13] = biological target: T8, human serotonin 5-HT1A receptor (Homo sapiens, UniProt P08908); assay: Competition binding, [3H]WAY600135, HEK293T membranes; conditions: ± SD of two experiments
T8 construct: expressed in transfected cells; host or cells: HEK293T cells, transient transfection
T8 sequence (P08908 1-422): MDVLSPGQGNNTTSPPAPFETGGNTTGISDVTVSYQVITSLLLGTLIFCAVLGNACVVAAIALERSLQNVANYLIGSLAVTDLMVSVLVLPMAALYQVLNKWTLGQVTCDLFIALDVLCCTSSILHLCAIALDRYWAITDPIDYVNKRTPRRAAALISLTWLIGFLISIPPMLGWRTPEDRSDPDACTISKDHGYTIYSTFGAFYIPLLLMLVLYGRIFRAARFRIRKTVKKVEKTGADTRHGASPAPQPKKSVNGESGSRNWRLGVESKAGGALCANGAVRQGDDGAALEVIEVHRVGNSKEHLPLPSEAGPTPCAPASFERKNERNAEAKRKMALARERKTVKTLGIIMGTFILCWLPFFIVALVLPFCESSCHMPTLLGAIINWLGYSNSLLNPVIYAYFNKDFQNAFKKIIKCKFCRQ

[14] = biological target: T9, dopamine D2S receptor co-expressed with hybrid Gαqi in HEK293T cells (Homo sapiens, UniProt P14416); assay: IP accumulation assay (IP-One HTRF), inhibition of 10 nM quinpirole; type: cell-based
T9 construct: expressed in transfected cells; host or cells: HEK-293T cells, transient co-transfection

[15] = biological target: T9, dopamine D2S receptor co-expressed with hybrid Gαqi in HEK293T cells; assay: IP accumulation assay (IP-One HTRF), agonist / inverse agonist effect; type: cell-based
[16] = biological target: T10, D2S receptor (HEK293T cells co-transfected with D2S and Gαqi) (Homo sapiens, UniProt P14416); assay: Illumination experiment: test compound solution irradiated at 365 nm before addition to cells, quinpirole stimulated IP accumulation; type: cell-based; conditions: controls; 10 nM quinpirole
T10 construct: expressed in transfected cells; host or cells: HEK-293T cells, transient co-transfection
Excerpt: […]. Mean curves ± SEM of 4–9 individual curves each done in triplicates. […]. Mean curves from 3–4 experiments each done in duplicate. […]. While 4 (MG307) (green bars) is completely released after 10 sec, the uncaging of 5 (red bars) needs 20 sec. […]. Mean bars ± SEM derived from 3–11 individual experiments each done in quintuplicates. Irradiation with a solution of test compound before addition to the cellular test system. […]. Means ± SEM from 6 experiments in quintuplicates.
[…]. Actually, we observed an onset of a strong inverse agonist effect on quinpirole-induced IP accumulation after irradiation of the nitrobenzyl-caged compound 4 (MG307). […] […]. […] To complement uncaging of the test compounds by irradiation of the test compounds before addition to receptor by a biologically more significant experiment, we investigated whether uncaging can also be accomplished directly in the cellular system. […] In fact, quinpirole-promoted IP accumulation was substantially attenuated after irradiation for 10 or 20 sec. […] […]. […] […].
HEK293T cells were transiently co-transfected with D2S and Gαqi. Solutions of the test compounds were irradiated at λ = 365 nm using the same LED as for the photochemistry experiments (see above) for 2, 5, 10 or 20 sec and the test compound was added to the cell system immediately after illumination. […]. Accumulation of IP was determined as described above. […]. Basal activity (buffer) was set as 0%. As a control, quinpirole was irradiated for 20 sec without observing any difference to the effect of the untreated analog. […]. All irradiation experiments were carried out in the dark or under dim light.

[17] = [3H]spiperone, mean ± SEM of 4-9 experiments, compounds 1, 2, 3: ± SD of two experiments, read-out: Ki value D2S
[18] = [3H]spiperone, mean ± SEM of 4-9 experiments, compounds 1, 2, 3: ± SD of two experiments, read-out: Ki value D2L
[19] = [3H]spiperone, mean ± SEM of 4-9 experiments, compounds 1, 2, 3: ± SD of two experiments, read-out: Ki value D4.4

Chain of human dopamine receptor subtype D2L (P14416 whole entry): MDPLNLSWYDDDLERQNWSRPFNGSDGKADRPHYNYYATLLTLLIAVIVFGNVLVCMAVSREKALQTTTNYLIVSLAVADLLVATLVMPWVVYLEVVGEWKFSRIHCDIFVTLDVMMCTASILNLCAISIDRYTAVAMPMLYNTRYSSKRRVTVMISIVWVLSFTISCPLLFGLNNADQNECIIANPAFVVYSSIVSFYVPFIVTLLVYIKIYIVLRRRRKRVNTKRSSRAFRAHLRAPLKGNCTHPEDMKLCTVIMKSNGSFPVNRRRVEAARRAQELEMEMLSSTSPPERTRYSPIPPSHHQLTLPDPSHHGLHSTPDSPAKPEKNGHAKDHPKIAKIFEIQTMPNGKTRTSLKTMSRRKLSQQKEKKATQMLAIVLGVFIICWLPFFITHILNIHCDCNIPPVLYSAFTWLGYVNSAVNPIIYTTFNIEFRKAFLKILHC
Chain of human dopamine receptor subtype D2S (P14416 1-414 isoform P14416-2): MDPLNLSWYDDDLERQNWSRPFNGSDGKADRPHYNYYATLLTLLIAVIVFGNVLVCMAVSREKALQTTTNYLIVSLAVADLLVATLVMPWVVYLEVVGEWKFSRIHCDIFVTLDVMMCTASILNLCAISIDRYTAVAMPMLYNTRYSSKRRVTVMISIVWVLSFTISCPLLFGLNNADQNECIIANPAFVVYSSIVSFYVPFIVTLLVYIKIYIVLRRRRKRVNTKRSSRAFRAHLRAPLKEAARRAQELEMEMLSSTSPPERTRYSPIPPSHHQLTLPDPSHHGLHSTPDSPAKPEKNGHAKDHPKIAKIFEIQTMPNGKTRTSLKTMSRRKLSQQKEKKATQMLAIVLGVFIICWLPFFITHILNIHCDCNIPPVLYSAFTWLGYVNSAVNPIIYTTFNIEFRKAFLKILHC
T9 sequence (P14416 1-414 isoform P14416-2): as above
T10 sequence (P14416 1-414 isoform P14416-2): as above
Chain of human dopamine receptor subtype D3 (P35462 whole entry): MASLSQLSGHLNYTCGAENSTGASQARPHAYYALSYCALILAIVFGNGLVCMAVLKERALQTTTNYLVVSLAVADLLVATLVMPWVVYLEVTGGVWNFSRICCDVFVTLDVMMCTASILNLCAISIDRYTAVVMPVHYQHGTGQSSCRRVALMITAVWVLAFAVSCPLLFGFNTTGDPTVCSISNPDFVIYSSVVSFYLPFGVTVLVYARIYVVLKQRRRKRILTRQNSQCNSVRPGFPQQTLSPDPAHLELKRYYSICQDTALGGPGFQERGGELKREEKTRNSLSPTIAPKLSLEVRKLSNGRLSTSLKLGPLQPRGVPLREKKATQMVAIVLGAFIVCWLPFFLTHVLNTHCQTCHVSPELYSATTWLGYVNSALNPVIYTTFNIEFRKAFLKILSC
T3 sequence (P21918 whole entry): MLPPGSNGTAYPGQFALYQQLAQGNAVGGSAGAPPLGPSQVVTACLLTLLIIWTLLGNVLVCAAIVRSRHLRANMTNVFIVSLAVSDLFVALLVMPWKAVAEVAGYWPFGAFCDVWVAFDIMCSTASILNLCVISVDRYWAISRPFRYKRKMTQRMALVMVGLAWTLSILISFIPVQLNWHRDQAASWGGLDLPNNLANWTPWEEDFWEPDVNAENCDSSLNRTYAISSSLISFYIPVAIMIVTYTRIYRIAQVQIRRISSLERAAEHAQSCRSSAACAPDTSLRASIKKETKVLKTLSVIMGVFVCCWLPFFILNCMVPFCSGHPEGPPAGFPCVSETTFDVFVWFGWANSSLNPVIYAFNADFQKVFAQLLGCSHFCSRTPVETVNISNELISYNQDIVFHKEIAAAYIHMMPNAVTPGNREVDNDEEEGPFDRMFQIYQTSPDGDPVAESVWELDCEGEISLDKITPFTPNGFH
T7 sequence (P28223 whole entry): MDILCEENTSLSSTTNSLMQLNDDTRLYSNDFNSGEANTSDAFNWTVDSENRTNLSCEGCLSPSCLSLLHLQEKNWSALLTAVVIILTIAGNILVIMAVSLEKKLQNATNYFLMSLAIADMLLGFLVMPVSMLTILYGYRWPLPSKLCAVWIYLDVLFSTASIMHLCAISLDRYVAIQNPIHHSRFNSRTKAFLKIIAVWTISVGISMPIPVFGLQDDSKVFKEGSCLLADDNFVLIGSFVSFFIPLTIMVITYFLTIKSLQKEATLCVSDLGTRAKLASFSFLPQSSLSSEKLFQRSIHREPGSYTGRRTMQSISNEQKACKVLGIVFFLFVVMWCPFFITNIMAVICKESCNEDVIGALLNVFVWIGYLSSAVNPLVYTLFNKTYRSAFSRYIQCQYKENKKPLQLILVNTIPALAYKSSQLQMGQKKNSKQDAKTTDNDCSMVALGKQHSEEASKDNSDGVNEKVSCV
T4 sequence (P21728 whole entry): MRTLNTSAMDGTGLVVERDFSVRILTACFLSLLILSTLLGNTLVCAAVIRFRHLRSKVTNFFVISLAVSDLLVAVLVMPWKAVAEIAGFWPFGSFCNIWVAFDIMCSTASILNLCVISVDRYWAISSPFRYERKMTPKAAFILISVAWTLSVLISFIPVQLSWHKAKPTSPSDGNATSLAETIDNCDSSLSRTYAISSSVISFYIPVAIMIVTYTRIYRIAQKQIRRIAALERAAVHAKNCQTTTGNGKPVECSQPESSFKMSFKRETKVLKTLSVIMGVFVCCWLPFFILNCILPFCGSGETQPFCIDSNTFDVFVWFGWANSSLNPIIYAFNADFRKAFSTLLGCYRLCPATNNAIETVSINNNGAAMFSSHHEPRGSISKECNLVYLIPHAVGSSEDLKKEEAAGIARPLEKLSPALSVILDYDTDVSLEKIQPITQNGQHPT
T6 sequence (P07550 whole entry): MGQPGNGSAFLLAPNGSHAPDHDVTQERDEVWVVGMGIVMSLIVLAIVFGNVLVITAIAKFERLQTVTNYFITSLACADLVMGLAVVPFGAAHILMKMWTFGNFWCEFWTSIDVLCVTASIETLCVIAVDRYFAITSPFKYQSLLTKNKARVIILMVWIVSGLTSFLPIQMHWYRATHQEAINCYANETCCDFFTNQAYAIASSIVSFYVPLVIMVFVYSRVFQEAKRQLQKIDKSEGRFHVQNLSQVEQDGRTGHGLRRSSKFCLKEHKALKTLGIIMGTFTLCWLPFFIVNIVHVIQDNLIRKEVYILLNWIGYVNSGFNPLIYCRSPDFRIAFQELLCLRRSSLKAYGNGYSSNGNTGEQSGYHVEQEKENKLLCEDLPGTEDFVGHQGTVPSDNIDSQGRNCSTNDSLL

COC1(C2=NCCN2)COc2ccccc2O1 (centres unmarked) [[^3H]RX801002]
Kd ([1]; HEK293T membranes, read-out: KD of radioligand for α2A): 0.29 nM

CCc1cc(Cl)c(OC)c(C(=O)NC[C@@H]2CCCN2CC)c1OCc1ccccc1 [compound 3]
Ki [2, 17]: 6200 ± 3500 nM
Ki [3, 18]: 4800 ± 3500 nM
Ki [4]: 4.8 to 22 µM
Ki [5]: 5.6 ± 5.4 µM

CCc1cc(Cl)c(OC)c(C(=O)NC[C@@H]2CCCN2CC)c1OCc1ccccc1[N+](=O)[O-] [compound 1]
behaviour upon illumination with λp = 365 nm (in words) [6]: complete photolysis after seconds of irradiation
stability in the absence of light (in words) [6]: not fully stable and slowly decomposed to liberate eticlopride even in the absence of light
Ki [7, 19]: 2800 ± 1200 nM

CCc1cc(Cl)c(OC)c(C(=O)NC[C@@H]2CCCN2CC)c1O [eticlopride]
Ki (D2 and D3 receptors): 0.21 to 0.28 nM
Ki [2]: 0.28 ± 0.03 nM
Ki [3]: 0.25 ± 0.062 nM
Ki [8]: 46 ± 1.1 µM
behaviour upon illumination with λp = 365 nm (in words) [6]: fast decomposition rate towards light with λp = 365 nm
Ki [9]: 23 ± 5.8 µM
Ki [10]: 81 ± 2.1 nM
Ki [11]: 4.9 ± 0.21 µM
Ki [7]: 120 ± 19 nM
Ki ([1]; [3H]RX821002, ± SD of two experiments): 66 ± 19 nM
Ki [12]: 220 ± 23 nM
Ki [13]: 570 ± 250 nM

CCc1ccc(OC)c(C(=O)NC[C@@H]2CCCN2CC)c1OCc1ccccc1 [compound 6]
Emax ([14]; HEK-293T, in presence of 10 nM quinpirole, relative to quinpirole (100%) and buffer (0%), read-out: inhibitory effect Emax): -17 ± 9.8%
IC50 ([14]; blocking of the agonist effect of 10 nM quinpirole, ± SEM, 4-6 experiments, read-out: inhibitory effect IC50): 5.5 ± 2.9 µM
Ki [2, 17]: 510 ± 120 nM
Ki [3, 18]: 1300 ± 250 nM
functional properties in IP accumulation assay (in words) ([15]; D2S receptors): inverse agonist properties were observed as well, but potency was low
Emax ([15]; HEK-293T, relative to full effect of quinpirole (100%) and buffer (0%)): -22 ± 1.8%
EC50 ([15]; IP accumulation, ± SEM, 3-8 experiments, negative Emax = inverse agonist effect): 480 ± 310 nM
Ki [7, 19]: 7700 ± 1100 nM
effect of irradiation at 365 nm for 20 sec on the compound's effect on IP accumulation (in words) [16]: does not affect; also recorded: no significant effect
Ki [5]: 0.48 ± 0.12 µM

CCc1cc(Cl)c(OC)c(C(=O)NC[C@@H]2CCCN2CC)c1OCc1cc(OC)c(OC)cc1[N+](=O)[O-] [compound 2]
behaviour upon illumination with λp = 365 nm (in words) [6]: Rapid photolytic degradation
stability in the absence of light (in words) [6]: not fully stable and slowly decomposed to liberate eticlopride even in the absence of light
